Assay results taken from PMC5770468, “Cardiac glycoside/aglycones inhibit HIV-1 gene expression by a mechanism requiring MEK1/2-ERK1/2 signaling” (Scientific Reports, 2018).

Key:
HIV-infected PBMCs = assay: Ex vivo therapeutic index (CC50/IC50) in HIV-infected PBMCs; assay type: cell-based, human; settings: CC50/IC50, day 14, HIV-infected PBMCs
Excerpt: Without median toxic dose (TD50) and half-maximal effective concentration (EC50) data available to calculate TIs (in vivo) from HIV patients treated with CSs, we determined the following TIs for each cell type treated with a CS (summarized in Supplementary Table S1): in vitro TIs from HeLa rtTA-HIV-ΔMls cells using CC20/IC50 (instead of CC50/IC50), in vitro TIs from 24ST1NLESG cells using CC50/IC50, and ex vivo TIs from HIV-infected PBMCs using CC50/IC50 (at day 14 of culture approximated from available cell viability trends for CC50s of Supplementary Fig. S13 and inferred near maximal IC50s).
Supplementary Figure S13. Estimation of the approximate ex vivo therapeutic indices of several
CSs. Ex vivo TIs were calculated from CC50/IC50 from day 14 of culture of HIV-infected patient PBMCs treated with CSs. CC50s were estimated/extrapolated from data points by their trends (dashed arrows) from XTT assays of cell viability (gray circles) and their inferred near maximal IC50s estimated from results on HIV-1 p24CA (Gag) production (black circles) from Figures 2f-h and some data points published on digoxin [Wong et al. (2013). PLoS Pathog 9(3):e1003241]. […]

[1] = system: HeLa rtTA-HIV(Gag-GFP) cells; assay type: cell-based, human; settings: 220 nM
Description: Using the same methods and conditions described for HeLa rtTA-HIV-ΔMls cells, HeLa rtTA-HIV(Gag-GFP) cells were seeded in 48-/12-well plates and pretreated with/without pathway inhibitor prior to treatment with drug/compounds and Dox. Equal concentrations of DMSO were present in each experiment. HIV-1 gene expression was determined by detecting Gag-GFP fluorescence in cells by plate scans using a Typhoon Imager 9400 (Amersham Biosciences) or Typhoon FLA 9400 (GE) on ImageQuant, cell lysates by SDS-PAGE captured on ChemiDoc MP, or cell lysates by p24^CA ELISA. Before quantification, cells were washed with warm PBS and either scanned live (and harvested for protein analyses) or fixed in 3.7% paraformaldehyde/formaldehyde-PBS for subsequent analyses. Data from cell scans and SDS-PAGEs were quantitated using ImageJ and Image Lab software, respectively. To determine which pathway signal was used by a CS to inhibit HIV-1 gene expression, cells treated with CS were pre-treated with a specific pathway inhibitor and monitored for recovery of Gag-GFP expression. […] In parallel, the cell viability of each pathway inhibitor and CS treatment combination were monitored by cell density staining of fixed cells with 2% methylene blue (BioBasic, #MB0342) in 50% ethanol and read at OD664 on a TECAN Infinite® 200 PRO or Biotek Cytation5. […]

Structure (SMILES) | better approximate ex vivo TI than FDA-approved counterparts (HIV-infected PBMCs) | effect on cell density [1]
C[C@]12CC[C@H](O)C[C@H]1CC[C@@H]1[C@@H]2CC[C@]2(C)[C@@H](C3=CC(=O)OC3)CC[C@]12O [Digitoxigenin] | ≥ 1.5 fold | –
COc1ccc(C[C@H]2NC[C@H](O)[C@H]2OC(C)=O)cc1 [anisomycin, Anisomycin] | – | little to no effect
